Measurements as given in patent EP4763221A1, “COMPOUND AND ANTIBODY-DRUG CONJUGATE COMPRISING SAME” (priority 2023, dated 2025).

Legend:
NCI-H1781 cells = assay: Specific cell killing activity (CellTiter-Glo); format: cell-based; details: medium with 10% human ab serum, 6 days
Method: NCI-H1781 cells (Cobioer Biosciences Co., Ltd., Cat. No. CBP60116) were collected, and centrifuged at 1000× g for 5 min, and then the supernatant was removed. The cells were resuspended and counted, and the viability was determined. The cells were diluted, and NCI-H1781 (2500 cells/100 µL) was added to each well of a black-bottom 96-well plate. The plate was incubated in an incubator at 37 °C with 5% CO2 overnight. The experimental drug was diluted with a medium (10% human ab serum), and 100 µL of the experimental drug was added to each well according to the experimental design. A blank control was designed, with three replicate wells set for each group. The plate was incubated in an incubator at 37 °C with 5% CO2 for 6 days. After incubation, the 96-well plate was centrifuged at 350× g for 5 min, and then 135 µL of the supernatant was discarded. 60 µL of CellTiter-Glo (Promega, Cat. No. G8461) was added to each well. The plate was incubated at room temperature for 15 min. Then the […] value was detected by a multi-label microplate tester.

MDA-MB-453 cells [1] = assay: FACS assay for internalization activity in MDA-MB-453 cells; format: cell-based; details: 100 nM, 37 °C for 1 h, 3 h and 5 h, compared to isotype control IgG-Dxd
Method: MDA-MB-453 cells (purchased from Cobioer Biosciences Co., Ltd., Cat. No. CBP60386) were collected, counted, and determined for cell viability. The cell suspension was added to a 96-well low-adsorption plate at 1 × 10^5 cells/sample and centrifuged at 750× g for 5 min. The supernatant was discarded. 100 µL of the experimental drug (at a working concentration of 100 nM) was added, with an isotype control (IgG-Dxd, at a working concentration of 100 nM) designed in parallel. The mixture was mixed uniformly and incubated in an incubator at 37 °C for 1 h, 3 h, and 5 h. After the incubation was completed, 1% PBSA (PBS + 1% BSA) was added, and the mixture was centrifuged at 750× g for 5 min. The supernatant was discarded, and the cells were washed twice with 1% PBSA. 100 µL of patritumab (at a working concentration of 100 nM) was added, and the mixture was incubated on ice for 30 min. 1% PBSA (PBS + 1% BSA) was added, and the mixture was centrifuged at 750× g for 5 min. The supernatant was discarded, and the cells were further washed twice with 1% PBSA. 100 µL of 300-fold diluted fluorescent antibody Mouse Anti-Human IgG Fc-Alexa Fluor 647 (Southern Biotech, Cat. No. 9040-31) was added, and the cell pellet was resuspended and incubated on ice for 30 min in the dark. 1% PBSA (PBS + 1% BSA) was added, and the mixture was centrifuged at 1000× g for 5 min. […]

MDA-MB-453 cells [2] = assay: ADCC activity with PBMCs (LDH cytotoxicity detection); format: cell-based; details: 5, 15 and 45 µg/mL, PBMC effector-to-target ratio 30:1, 4 h
Method: MDA-MB-453 cells (purchased from Cobioer Biosciences Co., Ltd., Cat. No. CBP60386) and PBMCs (provided by Zhongshan Blood Center) in the logarithmic growth phase were collected and centrifuged at 170× g for 5 min, and the supernatant was discarded. The cell pellet was resuspended in an assay medium (RPMI-1640 containing 1% FBS), centrifuged and washed twice, and the cells were counted. The cell density was adjusted with the assay medium, and the target cell suspension was seeded into a 96-well plate (containing about 3 × 10^4 target cells/well) at 50 µL/well. Then, serially diluted drugs (5 µg/mL, 15 µg/mL, and 45 µg/mL based on the working concentration of the antibody, respectively) were added, and the plate was pre-incubated at room temperature for 1 h. After the pre-incubation was completed, the PBMC suspension was added to the sample wells at 100 µL/well (each well contained about 9 × 10^5 PBMCs with an effector-to-target ratio of 30:1), mixed uniformly, and incubated in an incubator at 37 °C with 5% CO2 for 4 h. After the incubation was completed, the 96-well plate was taken out and centrifuged at 250× g for 5 min. 100 µL of culture supernatant was carefully pipetted and transferred to another 96-well plate. […] OD values at 490 nm and 650 nm were measured. […] The ADCC activity (expressed as ADCC%) was calculated based on the measured OD value of each group. […]

[3] = system: HCC827 human lung cancer cell xenograft tumor; assay: In vivo efficacy in xenograft tumor model; set-up: species or system CB-17 SCID mice; details: 3 mg/kg and 1.5 mg/kg, IV, weekly×3, compared to isotype control antibody
Source text: To determine the anti-tumor activity of the anti-HER3 antibody-drug conjugates in vivo, HCC827 human lung cancer cells (purchased from GuangZhou Jennio Biotech Co., Ltd.) were first inoculated subcutaneously into 5- to 8-week-old female CB-17 SCID mice (purchased from Guangdong Model Organisms Center, Inc.) on the upper posterior region of the right hind thigh. The day of grouping was defined as D0. The route of administration was intravenous injection (iv), once a week for a total of 3 doses. After the administration, the length and width of the tumors in each group were measured, and the tumor volume was calculated. Table 7: Dosing regimen of anti-HER3 antibody-drug conjugates for treatment of CB-17 SCID mouse model of HCC827 human lung cancer cell xenograft tumor

## KA0013: anti-HER3 antibody-drug conjugate: patritumab conjugated via thioether bonds to Mc-AAA-Dxd (KA0012)
NCI-H1781 cells
  specific cell killing activity: specifically kill NCI-H1781 cells
MDA-MB-453 cells [1]
  endocytic (internalization) activity: could be endocytosed in MDA-MB-453
MDA-MB-453 cells [2]
  ADCC activity: had ADCC activity
[3]
  growth of mouse tumors (tumor volume): effectively inhibit the growth of mouse tumors
